Results: ChEMBL document CHEMBL1201862, “PubChem BioAssay data set” (2004)
Values joined by “and” are separate entries in the source; they are usually repeats but may differ in a detail not shown here. Equal entries are not always repeated.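 48-hour exposure; five concentrations; linearly interpolated endpoints. Abbreviation: GI50, concentration required for 50% inhibition of growth.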 Active and inactive are the calls of the source. Rule as the data show it: active = GI50 up to about 1.1 µM and inactive = higher.

How the values were obtained:
Assay in all cases: NCI anticancer screen, dose series, 48 h
[1] = test system: SF-268
[2] = test system: U-251
[3] = test system: ACHN
[4] = test system: NCI-H522
[5] = test system: M14
[6] = test system: HT-29
[7] = test system: A498
[8] = test system: DMS-114
[9] = test system: SK-MEL-28
[10] = test system: TK-10
[11] = test system: SK-MEL-2
[12] = test system: MOLT-4
[13] = test system: Malme-3M
[14] = test system: SN12C
[15] = test system: SW-620
[16] = test system: RPMI-8226
[17] = test system: UO-31
[18] = test system: 786-0
[19] = test system: SNB-78
[20] = test system: RXF 393
[21] = test system: OVCAR-5
[22] = test system: K562
[23] = test system: NCI-H460
[24] = test system: HCT-15
[25] = test system: M19-MEL
[26] = test system: IGROV-1
[27] = test system: HOP-62
[28] = test system: SF-539
[29] = test system: HL-60
[30] = test system: LXFL 529
[31] = test system: XF498
[32] = test system: COLO 205
[33] = test system: KM-20L2
[34] = test system: SK-MEL-5
[35] = test system: OVCAR-4
[36] = test system: SNB-75
[37] = test system: A549
[38] = test system: HCC 2998
[39] = test system: HOP-92
[40] = test system: UACC-257
[41] = test system: LOX IMVI
[42] = test system: SNB-19
[43] = test system: NCI-H226
[44] = test system: UACC-62
[45] = test system: OVCAR-3
[46] = test system: OVCAR-8
[47] = test system: SK-OV-3
[48] = test system: CCRF-CEM
[49] = test system: SF-295
[50] = test system: DLD-1
[51] = test system: NCI-H23
[52] = test system: EKVX
[53] = test system: KM12
[54] = test system: HCT-116
[55] = test system: HOP-18
[56] = test system: SR
[57] = test system: DMS-273
[58] = test system: BT-549

Measured: GI50

COC(=O)/C(=N\NC(N)=S)C(C#N)c1ccccc1 (stereo not given)
inactive: [1] > 100 µM | [2] > 100 µM | [3] > 100 µM | [4] > 100 µM | [5] > 100 µM | [6] > 100 µM | [7] > 100 µM | [8] > 100 µM | [9] > 100 µM | [10] > 100 µM | [11] > 100 µM | [12] > 100 µM | [13] > 100 µM | [14] > 100 µM | [15] > 100 µM | [16] > 100 µM | [17] > 100 µM | [18] > 100 µM | [19] > 100 µM | [20] > 100 µM | [21] > 100 µM | [22] > 100 µM | [23] > 100 µM | [25] > 100 µM | [26] > 100 µM | [27] > 100 µM | [28] > 100 µM | [29] > 100 µM | [30] > 100 µM | [31] > 100 µM | [32] > 100 µM | [33] > 100 µM | [34] > 100 µM | [35] > 100 µM | [36] 19 µM | [37] > 100 µM | [38] > 100 µM | [39] > 100 µM | [40] > 100 µM | [41] > 100 µM | [42] > 100 µM | [43] > 100 µM | [44] > 100 µM | [45] > 100 µM | [46] > 100 µM | [47] > 100 µM | [48] > 100 µM | [49] > 100 µM | [50] > 100 µM | [51] > 100 µM | [52] > 100 µM | [53] > 100 µM | [54] > 100 µM
> 100 µM: [24]

Nc1c(C(=O)N/N=C/c2ccccc2)sc(=S)n1-c1ccccc1
inactive: [1] > 100 µM | [2] > 100 µM | [3] > 100 µM | [4] > 100 µM | [6] > 100 µM | [55] > 100 µM | [9] > 100 µM | [10] > 100 µM | [12] > 100 µM | [15] > 100 µM | [16] > 100 µM | [17] > 100 µM | [22] 3.38 µM | [23] > 100 µM | [25] > 100 µM | [26] > 100 µM | [27] > 100 µM | [28] 70 µM | [29] > 100 µM | [30] > 100 µM | [32] > 100 µM | [34] > 100 µM | [36] 8.71 µM | [37] > 100 µM | [38] > 100 µM | [39] > 100 µM | [40] > 100 µM | [42] > 100 µM | [43] > 100 µM | [56] > 100 µM | [44] > 100 µM | [45] > 100 µM | [46] > 100 µM | [47] > 100 µM | [48] > 100 µM | [49] > 100 µM | [50] > 100 µM | [51] > 100 µM | [53] > 100 µM | [54] > 100 µM

Oc1cccc2cccnc12 [OXYQUINOLINE]
active: [16] 0.578 µM | [29] 251 nM and 457 nM | [30] 0.605 µM | [56] 0.453 µM
inactive: [55] 14.8 µM | [26] 3.14 µM and 4.5 µM | [33] 1.38 µM | [34] 8.69 µM and 4.93 µM | [57] 2.53 µM | [58] > 80.2 µM | [50] 1.47 µM
